Source: US20190185865A1, “USE OF PROKARYOTIC TRANSCRIPTIONAL ACTIVATORS AS METABOLITE BIOSENSORS IN EUKARYOTIC CELLS” (Danmarks Tekniske Universitet, priority 2016, published 2019)

Tested on: BenM
Experiment: CCM-induced GFP expression in yeast strains combining BenM expression cassettes and CYC1p reporter promoter variants (flow cytometry)
Assay type: cell-based, Saccharomyces cerevisiae
Details: for FC (+/−CCM): 1.4 mM CCM, 24 h
From the text: Strains, chemicals and media. Saccharomyces cerevisiae CEN.PK102-5B (MATa ura3-52 his3Δ1 leu2-3/112 MAL2-8^c SUC2), CEN.PK113-5A (MATa, trp1 his3Δ1 leu2-3/112 MAL2-8^c SUC2) and CEN.PK113-7D (wild type, MATa MAL2-8^c SUC2) strains were obtained from Peter Kotter (Johann Wolfgang Goethe-University Frankfurt, Germany). In principal any other yeast strains may be used, such as one obtained from public repository EuroScarf. EasyClone plasmids used in this work are described in Jensen, N. B. et al. EasyClone: method for iterative chromosomal integration of multiple genes in Saccharomyces cerevisiae. FEMS Yeast Res. 14, 238-48 (2014). Escherichia coli strain DH5a was used as a host for cloning and plasmid propagation. The chemicals and Pfu TURBO DNA polymerase were commercially obtained (Sigma-Aldrich and Agilent Technologies Inc., respectively). All acids used were >97% in purity. S. cerevisiae cells were grown at 30° C. in synthetic complete medium as well as drop-out media and agar plates were prepared using pre-mixed drop-out powders (Sigma-Aldrich). Mineral medium was freshly prepared as described previously. For all media containing diacids, 1.4 mM of the individual diacids were dissolved in mineral medium and pH adjusted to 4.5 before sterile filtration. For CCM several dilutions were made to examine the performance of the CCM biosensor. For naringenin, mineral medium was supplemented with 0, 0.05, 0.10 or 0.20 mM naringenin, dissolved in ethanol, the final ethanol concentration for each medium was 2% (v/v), and the final pH of the medium was adjusted to 6.0. E. coli cells were grown at 37° C. in Luria-Bertani (LB) medium supplemented with 100 μg/mL ampicillin.
Events were analyzed using FlowJo software (TreeStar Inc.).

[1] = strain MeLS0131, 491bp_CYC1p:GFP
[2] = strain MeLS0132, 272bp_CYC1p:GFP
[3] = strain MeLS0133, 249bp_CYC1p:GFP
[4] = strain MeLS0134, 209bp_CYC1p:GFP
[5] = strain MeLS0135, 491bp_CYC1p_BenO_T1:GFP
[6] = strain MeLS0136, 272bp_CYC1p_BenO_T1:GFP
[7] = strain MeLS0137, 249bp_CYC1p_BenO_T1:GFP
[8] = strain MeLS0138, 209bp_CYC1p_BenO_T1:GFP
[9] = strain MeLS0177, 491bp_CYC1p_BenO_T2:GFP
[10] = strain MeLS0178, 491bp_CYC1p_BenO_T1/T2:GFP
[11] = strain MeLS0180, 209bp_CYC1p_BenO_T2:GFP
[12] = strain MeLS0181, 209bp_CYC1p_BenO_T1/T2:GFP
[13] = strain MeLS0259, 272bp_CYC1p_BenO_T2:GFP
[14] = strain MeLS0260, 249bp_CYC1p_BenO_T2:GFP
[15] = strain MeLS0261, 272bp_CYC1p_BenO_T1/T2:GFP
[16] = strain MeLS0262, 249bp_CYC1p_BenO_T1/T2:GFP

SMILES: O=C(O)/C=C\C=C/C(=O)O [CCM, cis, cis-muconic acid]
- Mean fluorescense intensities of GFP (24 h), CCM (1.4 mM) [1]: 2899
- FC (+/−CCM) [1]: 1.042
- Mean fluorescense intensities of GFP (24 h), CCM (1.4 mM) [2]: 211
- FC (+/−CCM) [2]: 1.213
- Mean fluorescense intensities of GFP (24 h), CCM (1.4 mM) [3]: 219
- FC (+/−CCM) [3]: 1.043
- Mean fluorescense intensities of GFP (24 h), CCM (1.4 mM) [4]: 171
- FC (+/−CCM) [4]: 1.13
- Mean fluorescense intensities of GFP (24 h), CCM (1.4 mM) [5]: 801
- FC (+/−CCM) [5]: 1.062
- Mean fluorescense intensities of GFP (24 h), CCM (1.4 mM) [6]: 160
- FC (+/−CCM) [6]: 1.032
- Mean fluorescense intensities of GFP (24 h), CCM (1.4 mM) [7]: 180
- FC (+/−CCM) [7]: 1.151
- Mean fluorescense intensities of GFP (24 h), CCM (1.4 mM) [8]: 167
- FC (+/−CCM) [8]: 1.133
- Mean fluorescense intensities of GFP (24 h), CCM (1.4 mM) [9]: 698
- FC (+/−CCM) [9]: 1.088
- Mean fluorescense intensities of GFP (24 h), CCM (1.4 mM) [10]: 241
- FC (+/−CCM) [10]: 0.9731
- Mean fluorescense intensities of GFP (24 h), CCM (1.4 mM) [11]: 165
- FC (+/−CCM) [11]: 1.088
- Mean fluorescense intensities of GFP (24 h), CCM (1.4 mM) [12]: 165
- FC (+/−CCM) [12]: 1.102
- Mean fluorescense intensities of GFP (24 h), CCM (1.4 mM) [13]: 201
- FC (+/−CCM) [13]: 1.002
- Mean fluorescense intensities of GFP (24 h), CCM (1.4 mM) [14]: 313
- FC (+/−CCM) [14]: 0.909
- Mean fluorescense intensities of GFP (24 h), CCM (1.4 mM) [15]: 257
- FC (+/−CCM) [15]: 0.7988
- Mean fluorescense intensities of GFP (24 h), CCM (1.4 mM) [16]: 203
- FC (+/−CCM) [16]: 1
